From patent US20100190742A1, “COSMETIC/PHARMACEUTICAL COMPOSITIONS COMPRISING HYALURONIC ACID AND ADMINISTRATION THEREOF FOR REDUCING SIGNS OF AGING” (L'OREAL, priority 2007, published 2010)

Tested on: CD44
Assay: Expression of CD44 on cultured normal human skin explants, indirect immunoperoxidase histochemistry
Type: cell-based
Conditions: for Histochemical analysis of the CD44 receptor (semiquantitative scores), Mean ± sd n = 8: skin explants cultured 14 days
Method: CD44 is a transmembrane glycoprotein with a molecular weight of 80-95 kDa (CD44). The increase in the expression of this receptor at the surface of the cells of the skin improves the binding of hyaluronic acid, collagen and fibronectin. This binding makes possible in particular hydration of the dermis and epidermis.
Normal human skin fragments are obtained by plastic surgery and are deposited in culture plates. The skin explants are cultured for 14 days and compound A is added daily at 0.3 or 3 mM. At the end of culturing, the skin explants are fixed in Bouin's fluid and embedded in paraffin wax. Sections are produced and the receptor is visualized by a 3-layer indirect immunoperoxidase technique (ABC peroxidase kit, Vector Laboratories).
Histochemical analysis of the CD44 receptor (semiquantitative scores);

activity on expression of CD44 (in words) (0.3 mM): present
activity on expression of CD44 (in words) (higher concentration (3 mM)): again encountered
Histochemical analysis of the CD44 receptor (semiquantitative scores), Mean ± sd n = 8 (compound added daily at 0.3 mM): 2.30 ± 1.00
Histochemical analysis of the CD44 receptor (semiquantitative scores), Mean ± sd n = 8 (compound added daily at 3.0 mM): 2.00 ± 1.10
expression of CD44 (histological evaluation, in words) (skin explants treated daily for 14 days): significant increase
SMILES: CC(O)C[C@@H]1OC[C@@H](O)[C@H](O)[C@H]1O (stereo partly drawn) [compound A, C-β-D-xylopyranoside-2-hydroxypropane]
